Measured values taken from the supplement of paper PMC10307832.

Assays:
YM155 + Foretinib = compound: COCC[n+]1c2c(n(Cc3cnccn3)c1C)C(=O)c1ccccc1C2=O [YM155] + COc1cc2c(Oc3ccc(NC(=O)C4(C(=O)Nc5ccc(F)cc5)CC4)cc3F)ccnc2cc1OCCCN1CCOCC1 [Foretinib] (partner 0.25 µM); assay: relative viability (nuclei count vs DMSO), 5 days (fraction); higher = more cells survive
In short: (§1)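 Relative viability divides the nuclei count in treated wells by that in vehicle wells. Lung cancer cell lines were seeded in 1536-well plates, dosed by pin tool the next day, and fixed and stained after 5 days in one step with final 0.05% Triton X-100, 1% formaldehyde and 1 ug/ml Hoechst. Dosing was a single drug or a fixed anchor-drug dose plus five library-drug doses (not always all listed) in √10 steps, and values are medians of duplicate plates imaged at 4×.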

Quizartinib + Navitoclax = compound: CC(C)(C)c1cc(NC(=O)Nc2ccc(-c3cn4c(n3)sc3cc(OCCN5CCOCC5)ccc34)cc2)no1 [Quizartinib] + CC1(C)CCC(c2ccc(Cl)cc2)=C(CN2CCN(c3ccc(C(=O)NS(=O)(=O)c4ccc(N[C@H](CCN5CCOCC5)CSc5ccccc5)c(S(=O)(=O)C(F)(F)F)c4)cc3)CC2)C1 [Navitoclax] (partner 0.5 µM); assay: as above
In short: as §1

Cell Line | relative viability (YM155 + Foretinib; first compound 0.002 µM) | relative viability (YM155 + Foretinib; first compound 0.006325 µM) | relative viability (YM155 + Foretinib; first compound 0.02 µM) | relative viability (YM155 + Foretinib; first compound 0.06325 µM) | relative viability (Quizartinib + Navitoclax; first compound 0.001 µM) | relative viability (Quizartinib + Navitoclax; first compound 0.003162 µM) | relative viability (Quizartinib + Navitoclax; first compound 0.01 µM) | relative viability (Quizartinib + Navitoclax; first compound 0.03162 µM) | relative viability (Quizartinib + Navitoclax; first compound 0.1 µM)
201T | 1.16 | 1.11 | 1.05 | 1.16 | 1.24 | 1.21 | 1.25 | 1.24 | 1.25
A549 | 0.923 | 0.932 | 1.1 | 0.624 | 1.26 | 1.11 | 1.25 | – | 1.13
A-427 | 1.08 | 0.984 | 0.976 | 1.05 | 0.94 | 0.881 | 0.869 | 0.906 | 0.95
ABC-1 | 1.03 | 0.824 | 0.206 | 0.2 | – | – | – | – | –
BEN | 0.622 | 0.716 | 0.804 | 0.645 | 0.0726 | 0.0683 | 0.107 | 0.051 | 0.0586
CAL-12T | 1.14 | 1.16 | 0.928 | 0.587 | 1.15 | 1.1 | 1.33 | 1.24 | 1.32
COR-L23 | 0.941 | 0.866 | 0.658 | 0.244 | 1.01 | 0.968 | 1.02 | 0.875 | 1.03
COR-L 105 | 0.994 | 1.02 | 0.848 | 0.733 | 0.536 | 0.71 | 0.907 | 0.651 | 0.729
Calu-6 | 0.882 | 0.845 | 0.727 | 0.0962 | 0.749 | 0.877 | 0.923 | 0.701 | 0.759
ChaGo-K-1 | 0.854 | 0.984 | 0.926 | 0.854 | 0.439 | 1.02 | 1.02 | – | 1.52
EBC-1 | 0.0935 | 0.0954 | 0.0823 | 0.089 | 0.411 | 0.436 | 0.524 | 0.479 | 0.527
EKVX | 0.858 | 0.757 | 1.32 | 0.69 | 0.953 | 0.88 | 0.901 | 0.978 | 0.992
EMC-BAC-2 | 1.03 | 0.986 | 0.966 | 0.95 | 1.13 | 1.14 | 1.31 | 1.18 | 1.19
EPLC-272H | 0.694 | 0.71 | 0.849 | 0.735 | 1.06 | 0.964 | 1.15 | 1.18 | 1.05
H3255 | 0.917 | 0.896 | 0.998 | 1.07 | 0.523 | 0.442 | 0.531 | 0.661 | 0.468
HARA | 0.892 | 1.03 | 0.94 | 1.04 | 0.783 | 1.14 | 1.12 | 1.14 | 1.16
HCC-15 | 0.992 | 1.05 | 0.888 | 0.515 | 0.756 | 0.652 | 0.665 | 0.689 | 0.724
HCC-44 | – | – | – | – | 0.891 | 0.952 | 1.04 | 0.955 | 0.817
HCC-78 | 0.53 | 0.51 | 0.543 | 0.586 | 0.813 | 0.868 | 0.766 | 0.598 | 0.842

Cell Line | relative viability (YM155 + Foretinib; first compound 0.002 µM) | relative viability (YM155 + Foretinib; first compound 0.006325 µM) | relative viability (YM155 + Foretinib; first compound 0.02 µM) | relative viability (YM155 + Foretinib; first compound 0.06325 µM) | relative viability (Quizartinib + Navitoclax; first compound 0.001 µM) | relative viability (Quizartinib + Navitoclax; first compound 0.003162 µM) | relative viability (Quizartinib + Navitoclax; first compound 0.01 µM) | relative viability (Quizartinib + Navitoclax; first compound 0.03162 µM) | relative viability (Quizartinib + Navitoclax; first compound 0.1 µM)
HCC-366 | 0.924 | 0.899 | 0.951 | 1.11 | 0.799 | 1.01 | 0.957 | 1.06 | 0.903
HCC-827 | 1.03 | 1.09 | 1.07 | 1.06 | 0.987 | 1.03 | 1.05 | 0.957 | 1.13
HOP-62 | 0.979 | 1.04 | 1.17 | 1.02 | 1 | 0.888 | 1.16 | 1.01 | 1.1
IA-LM | 1.15 | 1.03 | 1.33 | 0.975 | 0.836 | 0.908 | 0.776 | 0.836 | 0.718
LC-2-ad | 0.923 | 0.967 | 0.884 | 0.666 | 0.317 | 0.446 | 0.518 | 0.453 | 0.394
LCLC-97TM1 | 0.924 | 0.97 | 1.07 | 0.97 | – | 0.669 | 0.489 | 0.355 | 0.413
LCLC-103H | 0.802 | 0.722 | 0.815 | 0.839 | – | – | – | – | –
LK-2 | 1.02 | 1.32 | 1.29 | 1.22 | 0.827 | 0.803 | 1.09 | 0.77 | 0.861
LOU-NH91 | 0.92 | 0.98 | 1.02 | 0.937 | 0.732 | 0.766 | 0.808 | 0.562 | 0.832
LU99A | 0.806 | 0.866 | 0.905 | 0.884 | 0.796 | 0.8 | 0.913 | 0.776 | 0.383
LXF-289 | 1 | 1.01 | 1.02 | 0.97 | 0.804 | 0.961 | 0.976 | 0.948 | 0.912
NCI-H23 | 0.643 | 0.718 | 0.959 | 0.785 | – | 0.852 | 0.915 | 0.773 | 0.472
NCI-H322M | 1.02 | 1.08 | 0.931 | 0.981 | 1.1 | 1.08 | 1.19 | 1.37 | 1.23
NCI-H358 | 0.653 | 0.699 | 0.736 | 0.37 | – | – | – | – | –
NCI-H441 | 0.859 | 0.636 | 0.992 | 0.43 | 0.562 | 0.567 | 1.29 | 0.591 | 1.05
NCI-H460 | 0.957 | 1.04 | 1.01 | 0.919 | 1 | 1.09 | 1.24 | – | 1.13
NCI-H520 | 0.662 | 0.671 | 0.68 | 0.831 | 1.17 | 0.982 | 1.19 | 0.948 | 0.888
NCI-H596 | 0.79 | 0.833 | 0.946 | 0.829 | 0.931 | 0.885 | 0.985 | 0.883 | 0.864
NCI-H647 | 1.21 | 1.11 | 0.981 | 0.474 | 0.77 | 1.11 | 1.17 | 1.04 | 1.2
